According to US11834678B2, “Hematopoietic stem cells with improved properties” (Yeda Research and Development Co. Ltd., priority 2017, dated 2023):

Columns and labels:
HSPCs = assay: HSPC levels in bone marrow after 6 days of NAC injections (FACS); type: in vivo; details: CD74−/− mice; NAC 50 mg/kg i.p. for 6 days; compared to WT levels
Description: FIGS. 8A-L illustrate that CD74 regulates stem cell retention. (FIGS. 8A-C) FACS staining of HSPCs from WT and CD74^−/− mice for Ki-67. Results are represented as: (FIG. 8A) Percentage of Ki-67^+ from CD34^−LSK and percentage of Ki-67^+ from CD34^+ LSK, (FIG. 8B) percentage of CD34−LSK Ki-67− and CD34−LSK Ki-67+ from total BM cells and (FIG. 8C) percentage of CD34^+ LSK Ki-67^− and CD34^+ LSK Ki-67^+ from total BM cells, n=15. (FIGS. 8D-E) Mice were fed with 0.8 mg/ml BrdU in the drinking water for 3 days and BrdU incorporation was analyzed by FACS. Results are represented as: (FIG. 8D) % BrdU^+ in LSK; (FIG. 8E) percentage of LSK BrdU^− and percentage of LSK BrdU^+ from total BM cells, n=12-14. (FIG. 8F-G) FACS staining of HSPCs from WT and CD74^−/− mice for ROS. Results are represented as number of ROS high in million cells, n=9. (FIGS. 8H-I) percentage of HSPCs after 6 days of NAC injections mg/ml, n=5. (FIG. 8J) FACS staining of HSPCs from WT and CD74^−/− mice for Annexin V, n=10-12, and after 24 hours in hypoxia (FIG. 8K), n=4-5. (FIG. 8L) Ratio of Annexin V+CD74^−/− to WT of HSPCs in hypoxia and normoxic conditions. Bars show SEM. Unpaired t-test two tailed *<0.05 **<0.01.
Electron transfer along the mitochondrial respiration chain induces the formation of ROS (Kobayashi and Suda, 2012). […]

HSPC = details: after a single injection; cited from earlier work

| Molecule | levels of HSPCs (HSPCs) | time to mobilization of HSPC (HSPC) |
| --- | --- | --- |
| CC(=O)N[C@@H](CS)C(=O)O [NAC, N-acetyl-L-cystein] | partially reduced | – |
| Zymosan | – | ≤ 1 h |
